Patent US20240358689A1, “Modulators Of The Beta-3 Adrenergic Receptor Useful For The Treatment Or Prevention Of Renal Cystic Disease and Cardiorenal Syndrome” (Arena Pharmaceuticals, Inc., priority 2021, published 2024)

Target: T1, Beta-3 Adrenergic Receptor (Homo sapiens, UniProt P13945)
T1 construct: expressed in transfected cells; host or cells: CHO-K1
Assay: Homogeneous Time-Resolved Fluorescence (HTRF) cAMP antagonist assay
Format: cell-based
Settings: Beta-3 Adrenergic Receptor IC50 Values, isoproterenol at EC90
Description: Example 1: IC50 Determinations in Homogeneous Time-Resolved Fluorescence (HTRF®) cAMP Antagonist Assays
HTRF cAMP assays were performed according to manufacturer's instructions (Cisbio, cAMP Dynamic 2 Assay Kit; #62AM4PEJ). CHO-K1 cells stably expressing recombinant receptor were harvested and suspended in warm PBS to make a 300,000 cells/mL stock. This cell suspension was dispensed into 384 well assay plates (PerkinElmer ProxiPlate #6008280) at 5 μL per well (1500 cells/well) along with a cAMP standard curve.
Compounds were dissolved and serially diluted (5-fold) in DMSO to generate a 10-point dose response stock. […] After a brief incubation, 2.5 μL of isoproterenol stock, prepared at a concentration 4 times its EC90 at the receptor of interest, was added to the wells. The EC90 for isoproterenol, a beta-adrenergic agonist, was determined in separate experiments using standard methods to measure agonist potencies.
Following a 1-hour incubation at room temperature, 5 μL of cAMP-D2 Reagent diluted in Lysis Buffer was added to each well followed by 5 μL of Cryptate Reagent. Plates were further incubated at room temperature for 1 hour prior to reading. Time resolved fluorescence measurements were collected on a suitable, HTRF-capable plate reader.
Counts from the plate reader were fit to the cAMP standard curve on the assay plate in order to determine cAMP concentrations in each well, and these values were used to construct dose-response curves to obtain IC50 values.

[1] = table of B compounds, CHO-K1 cells

T1 sequence (P13945 whole entry, species assumed): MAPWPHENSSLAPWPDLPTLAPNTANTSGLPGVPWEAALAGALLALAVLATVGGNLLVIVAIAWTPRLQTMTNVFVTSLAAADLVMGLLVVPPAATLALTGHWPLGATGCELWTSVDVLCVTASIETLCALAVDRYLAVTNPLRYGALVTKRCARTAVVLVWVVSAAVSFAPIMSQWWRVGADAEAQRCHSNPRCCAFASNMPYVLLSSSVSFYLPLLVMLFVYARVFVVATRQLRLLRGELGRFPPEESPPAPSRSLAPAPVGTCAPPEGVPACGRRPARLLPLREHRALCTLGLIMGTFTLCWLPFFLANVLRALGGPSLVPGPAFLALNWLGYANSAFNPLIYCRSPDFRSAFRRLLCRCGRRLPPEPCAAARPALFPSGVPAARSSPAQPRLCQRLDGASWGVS

| SMILES | IC50 [1] [µM] | other results |
| --- | --- | --- |
| O=S(=O)(c1cccc(OC[C@@H](O)CN[C@H]2COC3(CCN(S(=O)(=O)c4cnc5cc[nH]c5c4)CC3)C2)c1)C1CC1 [Compound A309, (S)-1-((R)-8-(1H-pyrrolo[3,2-b]pyridin-6-ylsulfonyl)-1-oxa-8-azaspiro[4.5]decan-3-ylamino)-3-(3-(cyclopropylsulfonyl)phenoxy)propan-2-ol] | – | IC50 (table of A compounds, CHO-K1 cells stably expressing recombinant receptor): 0.007 µM |
| CNS(=O)(=O)c1cccc(OC[C@@H](O)CN[C@H]2COC3(CCN(S(=O)(=O)c4cncc(-c5ccc(CN)cc5)c4)CC3)C2)c1 [Compound B375, 3-((S)-3-((R)-8-(5-(4-(aminomethyl)phenyl)pyridin-3-ylsulfonyl)-1-oxa-8-azaspiro[4.5]decan-3-ylamino)-2-hydroxypropoxy)-N-methylbenzenesulfonamide] | 0.0254 | – |
| CN1CCOc2ncc(S(=O)(=O)N3CCC4(CC3)C[C@@H](NC[C@H](O)COc3cccc(S(=O)(=O)N[C@@H]5CCC[C@@H]5O)c3)CO4)cc21 [Compound B437, 3-((S)-2-hydroxy-3-((R)-8-(1-methyl-2,3-dihydro-1H-pyrido[2,3-b][1,4]oxazin-7-ylsulfonyl)-1-oxa-8-azaspiro[4.5]decan-3-ylamino)propoxy)-N-((1R,2S)-2-hydroxycyclopentyl)benzenesulfonamide] | 0.472 | – |
| CNS(=O)(=O)c1cccc(OC[C@@H](O)CN[C@H]2COC3(CCN(c4nccc(C(=O)O)n4)CC3)C2)c1 [Compound B582, 2-((R)-3-((S)-2-hydroxy-3-(3-(N-methylsulfamoyl)phenoxy)propylamino)-1-oxa-8-azaspiro[4.5]decan-8-yl)pyrimidine-4-carboxylic acid] | – | IC50 (table of B compounds, cells in μM, CHO-K1 cells): ≥ 100 µM |
